Series [1] can be described thus: HPLC-MS/MS quantification of 9 compounds in plasma of RSV-infected mice after Scutellaria baicalensis Georgi administration. It is filed as in vivo, BALB/c mice. Further details: drug-containing plasma content: unit not given here. The procedure:
The study employed a Vanquish high-performance liquid chromatograph for chromatographic separation, with a HALO C18 column (2.1 × 100 mm, 2.7 μm) as the chromatographic column.
Mass spectrometry was performed using a quadrupole-electrostatic field orbitrap desktop mass spectrometer equipped with an electrospray ion source (ESI). The ESI parameters were set as follows: the pyrolysis voltage was 3.0 kV, the auxiliary gas flow rate was 10 mL/min, the ion transport tube temperature was 350 °C, the auxiliary gas temperature was 350 °C, and the sheath gas flow rate was 45 L/min. Quantitative analysis was performed using the selective ion detection (SIM) mode (Table S1).
Male BALB/c mice, aged 2 weeks and weighing 10–12 g, were chosen for this study. They were acclimatized for 2 days and then randomly assigned to one of five groups: blank (C), model (M), positive control ribavirin (Y1), positive control lianhua qingwen granules (Y2), and Scutellaria baicalensis Georgi administration (H1-H12). Each group consisted of six mice, and their weights were recorded. The mice were pre-administered for 2 days, and on the third day, RSV virus (TCID50 = 10^−6) was inoculated through intranasal infection at a volume of 35 μL per mouse. The blank group was inoculated with normal saline of the same volume. After the inoculation of the RSV virus, the blank and model groups were given distilled water by gavage, while the drug-administered groups were given an aqueous extract of Scutellaria baicalensis Georgi (10 µL/g) once a day for 3 days. The mice were observed daily for their mental status, hair color, diet, and body weight. […] It was then centrifuged at 3000 r/min for 10 min, and the upper layer of plasma was stored at −80℃. Lung tissues were weighed, the lung index was calculated, and the lung tissues were stored in the refrigerator at −80 °C for freezing.
The plasma sample (200 μL) was processed in a 5 mL tube. Subsequently, 10 μL of 5% formic acid and 20 μL of 2 mol/L hydrochloric acid were added, followed by vortexing for 1 min with 10 μL of internal standard solution (100 ng/mL tinidazole). The extraction was completed by adding 2000 μL of acetonitrile solvent and vortexing for 2 min. The mixture was then centrifuged at 12,000 r/min at 4 °C for 10 min, and the supernatant solution was collected in a new centrifuge tube. The supernatant solution was dried by nitrogen at room temperature before being redissolved in 50 μL of 70% acetonitrile solution containing 0.1% formic acid. After vortexing for 1 min, the solution was centrifuged at 12,000 r/min at 4 °C for 10 min, and the resulting supernatant was injected for analysis. The injection volume was 3 μL.
The drug-containing plasma at different time points was subjected to sample treatment. The HPLC-MS/MS analysis method was used to quantitatively detect the 9 compounds in the ion detection (SIM) mode. According to the relative peak area value = index peak area/internal standard peak area, the corresponding concentration value was calculated by substituting the standard curve of each component.

The nature of series [2]: Stability of 9 compounds in mouse plasma under storage conditions. It is filed as in vitro ADME. The note with it: n = 6; for Stability 3-Freeze-Thaw Cycles RE: 3 times repeated freeze-thaw at −80 °C; for Stability Short-Term RE: 12 h at 4 °C; for Stability Long-Term RE: −20 °C for 20 days.
Setting [3] is: RSV-infected mice after Scutellaria baicalensis Georgi administration, double peak phenomenon.
Where [4] appears, read: RSV-infected mice, 0.083 h after last gavage of Scutellaria baicalensis Georgi extract, mean ± SD, n = 6.
Setting [5] is: RSV-infected mice, 0.167 h after last gavage of Scutellaria baicalensis Georgi extract, mean ± SD, n = 6.
Setting [6] is: RSV-infected mice, 0.25 h after last gavage of Scutellaria baicalensis Georgi extract, mean ± SD, n = 6.
The mark [7] stands for this setting: RSV-infected mice, 0.5 h after last gavage of Scutellaria baicalensis Georgi extract, mean ± SD, n = 6.
Where [8] appears, read: RSV-infected mice, 1 h after last gavage of Scutellaria baicalensis Georgi extract, mean ± SD, n = 6.
Where [9] appears, read: RSV-infected mice, 2 h after last gavage of Scutellaria baicalensis Georgi extract, mean ± SD, n = 6.
Where [10] appears, read: RSV-infected mice, 4 h after last gavage of Scutellaria baicalensis Georgi extract, mean ± SD, n = 6.
Where [11] appears, read: RSV-infected mice, 6 h after last gavage of Scutellaria baicalensis Georgi extract, mean ± SD, n = 6.
The mark [12] stands for this setting: RSV-infected mice, 8 h after last gavage of Scutellaria baicalensis Georgi extract, mean ± SD, n = 6.
Setting [13] is: RSV-infected mice, 10 h after last gavage of Scutellaria baicalensis Georgi extract, mean ± SD, n = 6.
Where [14] appears, read: RSV-infected mice, 12 h after last gavage of Scutellaria baicalensis Georgi extract, mean ± SD, n = 6.
[15] abbreviates: RSV-infected mice, 24 h after last gavage of Scutellaria baicalensis Georgi extract, mean ± SD, n = 6.
[16] abbreviates: high QC (20,000 or 10,000 ng/mL).

As for `COc1c(O)cc2oc(-c3ccccc3)cc(=O)c2c1O` [Oroxylin A], the “time of highest plasma concentration, first peak” value (from here on “time … first peak”) in series [1] (setting [3]) amounted to 0.167 h. The “time of highest plasma concentration, second peak” value (“time … second peak” below) in series [1] (setting [3]) turned out to be 6 h. Further, the drug-containing plasma content was 13.47± 9.43 in series [1] (setting [4]); 745.77± 35.54 in series [1] (setting [5]); 63.52± 1.32 in series [1] (setting [6]); 40.44± 4.81 in series [1] (setting [7]); 160.88± 15.86 in series [1] (setting [8]); 75.84± 5.43 in series [1] (setting [9]). The drug-containing plasma content in series [1] (setting [10]) stood at 486.23± 8.65; in series [1] (setting [11]), 1063.52± 101.32; in series [1] (setting [12]) it was 300.68± 17.25; in series [1] (setting [13]), 19.18± 2.56; in series [1] (setting [14]) it was 13.60± 7.94; in series [1] (setting [15]), 0. For the same compound, the “Stability 3-Freeze-Thaw Cycles RE” value is reported as −5.29% in series [2] (setting [16]), −4.26% in series [2] (low QC (12.5 or 25.6 ng/mL)) and −8.41% in series [2] (medium QC (320 or 160 ng/mL)). Moreover, the “Stability Short-Term RE” value in series [2] (setting [16]) is −4.07%; in series [2] (low QC (12.5 or 25.6 ng/mL)) it was −3.30%; in series [2] (medium QC (320 or 160 ng/mL)) it was −5.14%. The “Stability Long-Term RE” value in series [2] (setting [16]) is reported as −7.03%; in series [2] (low QC (12.5 or 25.6 ng/mL)) it was −6.71%; in series [2] (medium QC (320 or 160 ng/mL)), −5.78%.
On to `O=C(O)[C@H]1O[C@@H](Oc2cc(O)c3c(=O)cc(-c4ccc(O)cc4)oc3c2)[C@H](O)[C@@H](O)[C@@H]1O` [Apigenin-7-glucuronide], for which the “time … first peak” value in series [1] (male, BALB/c, mouse, in vivo) is 0.167 h. In addition, the “time … second peak” value in series [1] (male, BALB/c, mouse, in vivo) amounted to 6 h. The drug-containing plasma content stood at 4725.60± 214.70 in series [1] (male, BALB/c, mouse, in vivo, 0.083 h); 6986.86± 153.57 in series [1] (male, BALB/c, mouse, in vivo, 0.167 h); 4610.60± 192.08 in series [1] (male, BALB/c, mouse, in vivo, 0.25 h); 4344.98± 173.73 in series [1] (male, BALB/c, mouse, in vivo, 0.5 h); 1590.11± 125.69 in series [1] (male, BALB/c, mouse, in vivo, 1 h); 2934.42± 221.23 in series [1] (male, BALB/c, mouse, in vivo, 2 h). Moreover, the drug-containing plasma content in series [1] (male, BALB/c, mouse, in vivo, 4 h) is reported as 1037.07± 106.48; in series [1] (male, BALB/c, mouse, in vivo, 6 h) it was 9344.98± 327.73; in series [1] (male, BALB/c, mouse, in vivo, 8 h), 2958.20± 207.61; in series [1] (male, BALB/c, mouse, in vivo, 10 h), 896.04± 55.63; in series [1] (male, BALB/c, mouse, in vivo, 12 h), 47.32± 11.82; in series [1] (male, BALB/c, mouse, in vivo, 24 h) it was 23.55± 2.60. Besides, the “Stability 3-Freeze-Thaw Cycles RE” value is recorded as 8.37% in series [2] (setting [16]), −2.43% in series [2] (low QC (12.5 or 25.6 ng/mL)) and −0.72% in series [2] (medium QC (320 or 160 ng/mL)). Also, the “Stability Short-Term RE” value in series [2] (setting [16]) is recorded as 8.60%; in series [2] (low QC (12.5 or 25.6 ng/mL)), −3.20%; in series [2] (medium QC (320 or 160 ng/mL)) it was −2.08%. In addition, the “Stability Long-Term RE” value in series [2] (setting [16]) was 9.80%; in series [2] (low QC (12.5 or 25.6 ng/mL)) it was −3.16%; in series [2] (medium QC (320 or 160 ng/mL)), −1.48%.
As for `O=c1cc(-c2ccccc2)oc2c(O)c(O)cc(O)c12` [Norwogonin], the “time … first peak” value in series [1] (setting [3]) stood at 0.167 h. Moreover, the “time … second peak” value in series [1] (setting [3]) came out at 6 h. The drug-containing plasma content in series [1] (setting [4]) stood at 28.17± 2.96; in series [1] (setting [5]), 94.18± 5.68; in series [1] (setting [6]), 23.48± 0.05; in series [1] (setting [7]), 13.88± 4.73; in series [1] (setting [8]), 12.42± 7.14; in series [1] (setting [9]), 0. The drug-containing plasma content in series [1] (setting [10]) is reported as 14.29± 9.94; in series [1] (setting [11]) it was 113.88± 4.73; in series [1] (setting [12]), 21.94± 0.43; in series [1] (setting [13]), 16.07± 3.80; in series [1] (setting [14]), 0; in series [1] (setting [15]) it was 0. Besides, the “Stability 3-Freeze-Thaw Cycles RE” value is on record as 1.97% in series [2] (setting [16]), −6.11% in series [2] (low QC (12.5 or 25.6 ng/mL)) and 7.06% in series [2] (medium QC (320 or 160 ng/mL)). Moreover, the “Stability Short-Term RE” value in series [2] (setting [16]) was −1.39%; in series [2] (low QC (12.5 or 25.6 ng/mL)), −2.17%; in series [2] (medium QC (320 or 160 ng/mL)), 0.74%. Also, the “Stability Long-Term RE” value is 0.11% in series [2] (setting [16]), −8.96% in series [2] (low QC (12.5 or 25.6 ng/mL)) and 3.74% in series [2] (medium QC (320 or 160 ng/mL)).

The values above are taken from publication PMC10460054, “Multiplex Quantitative Analysis of 9 Compounds of Scutellaria baicalensis Georgi in the Plasma of Respiratory Syncytial Virus-Infected Mice Based on HPLC-MS/MS and Pharmacodynamic Effect Correlation Analysis” (Molecules, 2023).
